# Measurements: patent US5834244A, “Factor VIIa inhibitors from Kunitz domain proteins” (Genentech, Inc., priority 1995, dated 1998)
# Where two headings read alike, the source gives them in different places. Positions of bridges follow the written chain, without caps; N, C: chain ends. No end group written: not given here.
# Columns and labels:
# [1] = tested on: Male New Zealand white rabbits; test: Cuticle bleeding time assay; type: in vivo, rabbit; details: for bleeding compared to the saline control (in words): after 10 minutes
# Description: (§1) Male New Zealand white rabbits (~4 kg) were anesthetized to surgical anesthesia plane with an IM injection of Ketamine / Xylaxine. The rabbits were placed supine on a restraining board, warmed to 37° C., and the neck and inner thigh area shaved. Teflon catheters were replaced in a marginal ear vein and femoral artery for drug delivery and sample collection respectively. Prior to treatment, blood samples were collected for coagulation tests (APTT and PT). Bleeding time was assessed from a cut made in the cuticle portion of a hind limb nail. Incisions were made in the neck region and the entire left common carotid artery and its branches were surgically isolated. An ultrasonic flow probe (Transonics®) was placed on the common carotid approximately 5 cm caudal to the common--internal bifurcation. After blood flow reached a stable baseline, drugs (saline or test compounds) were delivered via the marginal ear vein. A deflated embolectomy catheter (Fogarty®, 3F) was then introduced into the lumen of the common via an incision in the lingual branch. Blood flow through the artery was stopped briefly while the catheter was introduced and loosely secured with 2-0 silk tie at the incision site. After the catheter was in place and secure, blood flow was restored. The deflated balloon was advanced to within 2 mm of the flow probe and inflated with saline until resistance of the vessel wall was felt. The catheter was pulled back with a steady motion to the first branch and then deflated. This procedure was repeated a total of six times for each experimental animal, after which the catheter was removed. […] Over 40 minutes, blood samples were taken for APTT and PT measurements, cuticle bleeding times were assessed and blood flow through the carotid monitored. Duration of patency was defined as the total amount of time (maximum=40 minutes) that any measurable blood flow is detected in the artery. Patency rate refers to the percentage of animals tested who had carotid artery blood flow ≥5 minutes. At the end of the experiment the rabbit was euthanized and the carotid artery removed and opened. If any thrombus was present, it was removed, blotted and the weight recorded.
# Table 3 below describes the results of the cuticle bleeding time assay at 10 minutes after dosing.
# [2] = tested on: Male New Zealand white rabbits; test: Rabbit deep medial injury model (carotid artery patency, thrombus weight); type: in vivo; details: for Clot (mps) / Duration (Min.) of patency: mean ± sem
# Description: as §1
# TF-FVIIa = target: T1, TF-FVIIa (Homo sapiens, UniProt P08709); test: Enzyme inhibition assay, apparent equilibrium dissociation constant (Ki*) with TF-FVIIa; type: biochemical
# T1 construct: is generated by proteolysis of a single peptide bond from its zymogen Factor VII (FVII); purchased Haematologic Technologies Inc. (FVIIa); TF1-243 made in house in E. coli; host or cells: E. coli (TF1-243)
# Description: Aliquots (25 μL) from each well of a microtiter plate containing the serially diluted inhibitors were transferred into new microtiter plates, each containing a different protease (100 μL) in the appropriate buffer. The proteases tested (protease concentration, buffer, substrate) were FVIIa (10 nM, Buffer A, 0.7 mM S2366), FXIa (1.0 nM, Buffer B containing 1 mg/ml BSA, 0.7 mM S2366), plasma kallikrein (3.5 nM, Buffer B, 0.5 mM S2302), and plasmin (15 nM, Buffer B, 1 mM S2251).
# normal human plasma = test: Activated partial thromboplastin time (APTT) assay, initiated by ellagic acid; type: biochemical
# Description: For the activated partial thromboplastin time (APTT) assays, the activation time was set at 120 sec and acquisition time at 300 to 600 sec depending on the expected outcome of the assay. Citrated normal human plasma and inhibitor were incubated together. The sample (plasma and inhibitor) and activator (Instrumentation Laboratories Ellagic acid/Phospholipid mix Test Reagent) were automatically pipetted and incubated together for 2 min at 37° C., then CaCl2 was added and clotting time determined by means of optical assessment. The total incubation time of inhibitor with plasma was ca. 3 min before addition of activator, and 5 min before addition of CaCl2.
# rabbit plasma [3] = test: APTT clotting time in rabbit plasma; type: biochemical; details: 40 μM
# Description: (§2) Samples of rabbit plasma were assayed using an MLA 800 coagulometer and Dade reagents. Actin FS® was the activator in the APTT assay. Rabbit Thromboplastin with Ca++ was used for the PT assays; the rabbit thromboplastin was diluted two-fold. All mutant inhibitors tested prolonged clotting by at least one fold. […] A greater than 10 fold prolongation of the clotting time at 40μM was observed.
# rabbit plasma [4] = test: PT clotting time in rabbit plasma; type: biochemical; details: 40 μM
# Description: as §2
# [5] = Heparin 1: 25 u/kg bolus then 0.5 u/kg/min infusion
# [6] = Heparin 2: 25 u/kg bolus then 1 u/kg/min infusion
# T1 sequence (P08709 213-466 limits assumed): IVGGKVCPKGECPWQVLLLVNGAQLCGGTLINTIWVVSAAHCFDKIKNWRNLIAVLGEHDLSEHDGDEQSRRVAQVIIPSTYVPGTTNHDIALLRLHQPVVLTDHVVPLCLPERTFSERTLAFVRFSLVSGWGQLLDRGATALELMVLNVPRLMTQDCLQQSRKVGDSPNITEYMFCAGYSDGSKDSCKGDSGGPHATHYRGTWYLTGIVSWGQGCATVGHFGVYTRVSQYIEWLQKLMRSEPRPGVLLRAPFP
# T1 sequence (P08709 61-212 limits assumed): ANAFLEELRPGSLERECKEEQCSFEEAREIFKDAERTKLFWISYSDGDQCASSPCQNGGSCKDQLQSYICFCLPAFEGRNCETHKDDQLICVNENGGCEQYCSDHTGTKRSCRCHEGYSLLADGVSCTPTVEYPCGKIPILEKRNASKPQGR
# T1 sequence (P13726 33-275 partner limits assumed): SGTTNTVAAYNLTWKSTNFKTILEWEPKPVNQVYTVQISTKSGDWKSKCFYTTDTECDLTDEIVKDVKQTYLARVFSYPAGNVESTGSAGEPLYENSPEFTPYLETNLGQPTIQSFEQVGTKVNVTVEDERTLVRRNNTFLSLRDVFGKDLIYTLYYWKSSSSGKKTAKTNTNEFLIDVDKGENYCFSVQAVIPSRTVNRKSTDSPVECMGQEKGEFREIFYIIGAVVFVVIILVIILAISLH
molecule,measurement,setting,value
"VREVCSEQAEPGPCRAMMKRWYFDVTEGKCAPFIYGGCYGNRNNFDTEEYCAAVCGSA (disulfide 5-55, 14-38, 30-51) [IV-49C]","Cuticle bleeding time, fold increase over pre dose","[1]; 10 minutes after dosing, 2 mg/kg IV bolus",1.0 ± 1.0 fold
same,bleeding compared to the saline control (in words),[1],did not induce prolonged bleeding
Heparin,Patency (%),[2]; [5],67%
same,Clot (mps),[2]; [5],13.6 ± 4.7 mps
same,Duration (Min.) of patency,[2]; [5],23.3 ± 6.7 min
same,Patency (%),[2]; [6],100%
same,Clot (mps),[2]; [6],19.1 ± 8.5 mps
same,Duration (Min.) of patency,[2]; [6],35.2 ± 2.2 min
same,patency and clot size compared to the saline control (in words),"[2]; rabbit, in vivo",significantly prolonged patency and reduced clot size
same,"Cuticle bleeding time, fold increase over pre dose","[1]; rabbit, in vivo",1.7 ± 0.4 fold
CC[C@H](C)[C@@H]1NC(=O)[C@H](CC(C)C)NC(=O)[C@H](C)NC(=O)[C@H](CCCNC(=N)N)NC(=O)[C@@H]2CSSC[C@@H]3NC(=O)CNC(=O)CNC(=O)[C@H](Cc4ccc(O)cc4)NC(=O)[C@H](Cc4ccccc4)NC(=O)[C@H](Cc4ccccc4)NC(=O)[C@@H]4CCCN4C(=O)[C@H](C)NC(=O)[C@H](CSSC[C@H](NC(=O)[C@H](Cc4ccc(O)cc4)NC(=O)[C@H](CCC(=O)O)NC(=O)[C@H](CCC(=O)O)NC(=O)[C@H]([C@@H](C)O)NC(=O)[C@H](CC(=O)O)NC(=O)[C@H](Cc4ccccc4)NC(=O)[C@H](CC(N)=O)NC(=O)[C@H](CC(N)=O)NC(=O)[C@H](CCCNC(=N)N)NC(=O)[C@H](CC(N)=O)NC(=O)CNC(=O)[C@H](Cc4ccc(O)cc4)NC3=O)C(=O)N[C@@H](C)C(=O)N[C@@H](C)C(=O)N[C@@H](C(C)C)C(=O)N[C@H](C(=O)NCC(=O)N[C@@H](CO)C(=O)N[C@@H](C)C(=O)O)CSSC[C@H](NC(=O)[C@@H](NC(=O)[C@H](CCC(=O)O)NC(=O)[C@H](CCCNC(=N)N)NC(=O)[C@@H](N)C(C)C)C(C)C)C(=O)N[C@@H](CO)C(=O)N[C@@H](CCC(=O)O)C(=O)N[C@@H](CCC(N)=O)C(=O)N[C@@H](C)C(=O)N[C@@H](CCC(=O)O)C(=O)N3CCC[C@H]3C(=O)NCC(=O)N3CCC[C@H]3C(=O)N2)NC(=O)[C@H](CCCCN)NC(=O)CNC(=O)[C@H](CCC(=O)O)NC(=O)[C@H]([C@@H](C)O)NC(=O)[C@H](C(C)C)NC(=O)[C@H](CC(=O)O)NC(=O)[C@H](Cc2ccccc2)NC(=O)[C@H](Cc2ccc(O)cc2)NC(=O)[C@H](Cc2c[nH]c3ccccc23)NC(=O)[C@H](CCCNC(=N)N)NC(=O)[C@H](CC(C)C)NC1=O [TF7I-C],bleeding compared to the saline control (in words),[1],did not induce prolonged bleeding
"APPI: Alzheimer's amyloid β-protein precursor inhibitor, wild type Kunitz domain (58 residues, SEQ ID NO: 34) (VREVCSEQAETGPCRAMISRWYFDVTEGKCAPFFYGGCGGNRNNFDTEEYCMAVCGSA)",inhibition of TF-FVIIa (in words),TF-FVIIa,moderate inhibitor
same,Ki,"TF-FVIIa; FVIIa 10 nM and TF1-243 50 nM, representative of nine (TF7I-C) and seven (APPI) determinations, read-out: Ki* with TF-FVIIa (FIG. 5, representative determination)",300 nM
same,Ki,"TF-FVIIa; FVIIa 10 nM, TF1-243, S2366, pH 7.5, read-out: apparent equilibrium dissociation constant Ki* with TF-FVIIa",301 ± 44 nM
same,"APTT clotting time, fold prolongation","normal human plasma; 40 μM inhibitor, uninhibited 31 s",3.6 fold
same,"APTT clotting time, fold prolongation",normal human plasma; ca. 7 μM inhibitor,ca. 3 fold
same,"APTT, fold increase over baseline",rabbit plasma [3],4.9 fold
same,"PT, fold increase over baseline",rabbit plasma [4],1.4 fold
same,Patency (%),"[2]; 2 mg/kg IV bolus, animals with carotid blood flow ≥5 minutes",40%
same,Duration (Min.) of patency,"[2]; 2 mg/kg IV bolus, maximum 40 minutes",13.4 ± 8.5 min
same,Clot (mps),"[2]; 2 mg/kg IV bolus, thrombus weight",49.5 ± 18.2 mps
same,"Cuticle bleeding time, fold increase over pre dose","[1]; rabbit, in vivo, iv, 2 mg/kg",2.2 ± 0.6 fold
